Test results published in ChEMBL document CHEMBL1144805, “The cephalostatin way of apoptosis” (2008).

What was measured:
UO-31 = assay: Cytotoxicity against human UO31 cells; type: functional
KM-20L2 = assay: Cytotoxicity against human KM20L2 cells; type: functional
[1] = Cytotoxicity against human HL60(TB) cells; type: functional, HL-60(TB); conditions: HL-60
SNB-75 = assay: Cytotoxicity against human SNB75 cells; type: functional
OVCAR-8 = assay: Cytotoxicity against human OVCAR8 cells; type: functional
SK-MEL-2 = assay: Cytotoxicity against human SK-MEL-2 cells; type: functional
NCI-H226 = assay: Cytotoxicity against human NCI-H226 cells; type: functional
EKVX = assay: Cytotoxicity against human EKVX cells; type: functional
HT-29 = assay: Cytotoxicity against human HT29 cells; type: functional
[2] = Cytotoxicity against human […] cells; type: functional
RPMI-8226 = assay: Cytotoxicity against human RPMI8226 cells; type: functional
UACC-62 = assay: Cytotoxicity against human UACC62 cells; type: functional
SK-MEL-28 = assay: Cytotoxicity against human SK-MEL-28 cells; type: functional
NCI-H322M = assay: Cytotoxicity against human NCI-H322M cells; type: functional
CAKI-1 = assay: Cytotoxicity against human CAKI1 cells; type: functional
A549 = assay: Cytotoxicity against human A549 cells; type: functional
LOX IMVI = assay: Cytotoxicity against human LOXIMVI cells; type: functional
SF-268 = assay: Cytotoxicity against human SF268 cells; type: functional
HOP-92 = assay: Cytotoxicity against human HOP92 cells; type: functional
MOLT-4 = assay: Cytotoxicity against human MOLT4 cells; type: functional
HOP-62 = assay: Cytotoxicity against human HOP62 cells; type: functional
[3] = Cytotoxicity against human LXFL529 cells; type: functional; conditions: LXFL 529
HCT-116 = assay: Cytotoxicity against human HCT116 cells; type: functional
M14 = assay: Cytotoxicity against human M14 cells; type: functional
DLD-1 = assay: Cytotoxicity against human DLD1 cells; type: functional
NCI-H23 = assay: Cytotoxicity against human NCI-H23 cells; type: functional
M19-MEL = assay: Cytotoxicity against human M19-MEL cells; type: functional
SK-OV-3 = assay: Cytotoxicity against human SK-OV-3 cells; type: functional
SF-539 = assay: Cytotoxicity against human SF539 cells; type: functional
OVCAR-3 = assay: Cytotoxicity against human OVCAR-3 cells; type: functional
NCI-H522 = assay: Cytotoxicity against human NCI-H522 cells; type: functional
SF-295 = assay: Cytotoxicity against human SF295 cells; type: functional
ACHN = assay: Cytotoxicity against human ACHN cells; type: functional
COLO 205 = assay: Cytotoxicity against human COLO205 cells; type: functional
[4] = Cytotoxicity against human TK20 cells; type: functional
HCT-15 = assay: Cytotoxicity against human HCT15 cells; type: functional
HOP-18 = assay: Cytotoxicity against human HOP18 cells; type: functional
UACC-257 = assay: Cytotoxicity against human UACC257 cells; type: functional
[5] = Cytotoxicity against human 786-O cells; type: functional; conditions: 786-0
SNB-78 = assay: Cytotoxicity against human SNB78 cells; type: functional
DMS-273 = assay: Cytotoxicity against human DMS273 cells; type: functional
[6] = Cytotoxicity against human HCC2996 cells; type: functional
OVCAR-5 = assay: Cytotoxicity against human OVCAR5 cells; type: functional
U-251 = assay: Cytotoxicity against human U251 cells; type: functional
SW-620 = assay: Cytotoxicity against human SW620 cells; type: functional
NCI-H460 = assay: Cytotoxicity against human NCI-H460 cells; type: functional
[7] = Cytotoxicity against human DMS144 cells; type: functional
CCRF-CEM = assay: Cytotoxicity against human CCRF-CEM cells; type: functional
IGROV-1 = assay: Cytotoxicity against human IGROV1 cells; type: functional
Malme-3M = assay: Cytotoxicity against human MALME3M cells; type: functional
SN12C = assay: Cytotoxicity against human SN12C cells; type: functional
RXF 393 = assay: Cytotoxicity against human RXF393 cells; type: functional
XF498 = assay: Cytotoxicity against human XF498 cells; type: functional
KM12 = assay: Cytotoxicity against human KM12 cells; type: functional
SNB-19 = assay: Cytotoxicity against human SNB19 cells; type: functional
OVCAR-4 = assay: Cytotoxicity against human OVCAR4 cells; type: functional
SR = assay: Cytotoxicity against human SR cells; type: functional
SK-MEL-5 = assay: Cytotoxicity against human SK-MEL-5 cells; type: functional

## C[C@@H]1[C@]2(O[C@H]3C=C4[C@@H]5CC[C@H]6Cc7nc8c(nc7C[C@]6(C)[C@H]5C[C@@H](O)[C@]4(C)[C@]31O)C[C@@H]1CC[C@H]3C4=CC[C@@H]5[C@H](C)[C@@]6(OC[C@]45C(=O)C[C@]3(O)[C@@]1(C)C8)OC(C)(C)C[C@H]6O)O[C@](C)(CO)C[C@H]2O [CEPHALOSTATIN 2]
UO-31
  GI50: 1.18 nM
KM-20L2
  GI50: 0.661 nM
[1]
  GI50: 0.1 nM
SNB-75
  GI50: 0.1 nM
OVCAR-8
  GI50: 200 nM
SK-MEL-2
  GI50: 0.288 nM
NCI-H226
  GI50: 0.141 nM
EKVX
  GI50: 6.17 nM
HT-29
  GI50: 0.912 nM
[2]
  GI50: 0.339 nM
RPMI-8226
  GI50: 0.1 nM
UACC-62
  GI50: 0.141 nM
SK-MEL-28
  GI50: 0.234 nM
NCI-H322M
  GI50: 28.2 nM
CAKI-1
  GI50: 0.575 nM
A549
  GI50: 0.295 nM
LOX IMVI
  GI50: 0.151 nM
SF-268
  GI50: 0.195 nM
HOP-92
  GI50: 0.105 nM
MOLT-4
  GI50: 0.12 nM
HOP-62
  GI50: 0.105 nM
[3]
  GI50: 0.138 nM
HCT-116
  GI50: 0.295 nM
M14
  GI50: 0.219 nM
DLD-1
  GI50: 70.8 nM
NCI-H23
  GI50: 0.708 nM
M19-MEL
  GI50: 331 nM
SK-OV-3
  GI50: 0.457 nM
SF-539
  GI50: 0.1 nM
OVCAR-3
  GI50: 347 nM
NCI-H522
  GI50: 0.794 nM
SF-295
  GI50: 0.1 nM
ACHN
  GI50: 2.57 nM
COLO 205
  GI50: 0.617 nM
[4]
  GI50: 20.4 nM
HCT-15
  GI50: 2.34 nM
HOP-18
  GI50: 14.4 nM
UACC-257
  GI50: 0.912 nM
[5]
  GI50: 0.141 nM
SNB-78
  GI50: 0.251 nM
DMS-273
  GI50: 0.1 nM
[6]
  GI50: 74.1 nM
OVCAR-5
  GI50: 14.1 nM
U-251
  GI50: 0.112 nM
SW-620
  GI50: 0.174 nM
NCI-H460
  GI50: 0.126 nM
[7]
  GI50: 0.11 nM
CCRF-CEM
  GI50: 0.126 nM
IGROV-1
  GI50: 2.57 nM
Malme-3M
  GI50: 2.95 nM
SN12C
  GI50: 105 nM
RXF 393
  GI50: 0.1 nM
XF498
  GI50: 0.1 nM
KM12
  GI50: 0.371 nM
SNB-19
  GI50: 2.4 nM
OVCAR-4
  GI50: 17 nM
SR
  GI50: 0.135 nM
SK-MEL-5
  GI50: 0.724 nM
